The experiment has as its system OVX C57BL/6 mice (osteoporosis model). The experiment in a line: Bone histology and dynamic histomorphometry in Sham and OVX mice. In kind it is in vivo. The text has this:
Nine-month-old oophorectomised (OVX) and SHAM-operated C57BL/6 mice (n=24 per group) were obtained from the Animal Resources Centre (Perth, Wash.). After 2 weeks of acclimation, mice were divided into four groups (Table 2) and received treatment in their drinking water for a total of 6 weeks. Mice treated with plain water were used as controls. Mice were housed in cages in a limited access room.
For dynamic histomorphometry, tetracycline labelling was achieved through the intraperitoneal injection of demeclocycline (20 mg/kg) (Sigma Chemicals, St. Louis, Mo., USA) to the three treated groups at 5 and 2 days before sacrifice. One side femur from each animal in each group was removed at the time of killing, fixed in 70% ethanol, dehydrated, and embedded undecalcified in methylmethacrylate (J-T Baker, Phillipsburg, N.J., USA). At 50 μm intervals, longitudinal sections of 5 and 8 μm thick were cut using a polycut-E microtome (Reichert-Jung Leica, Heerbrugg, Switzerland), placed on gelatine-coated glass slides, deplastified and stained with Goldner's trichrome. Histomorphometry was done with a semi-automatic image analysing system combining a microscope equipped with a camera lucida and digitizing tablet linked to a computer using the OsteoMeasure Software (Osteometrics Inc., Decatur, Ga., USA). Nomenclature and abbreviations of histomorphometric parameters follow the recommendations of the American Society of Bone and Mineral Research (see Parfitt et al. (1987), “Bone histomorphometry: Standardization of nomenclature, symbols and units”, J Bone Miner Res., 2: 595-610.)

The record followed here is patent publication US9642897B2, “Treatment of bone diseases” (THE UNIVERSITY OF SYDNEY, priority 2011, dated 2017).

`O=C(O)c1ccccn1` [PA, pyridine-2-carboxylic acid]: where the note is “Sham and OVX mice, oral PA 6 weeks”, the “bone turnover (fluorochrome double labelling)” value is “significant and dose-dependent increase in bone turnover”. In addition, the “mineral apposition rates (MAR)” value (trabecular and cortical bone, vs vehicle) is “increased mineral apposition rates”. Further, the “mineralized bone (Von Kossa labelling)” value (vs untreated controls) is “higher levels of mineralized bone”.
